According to patent EP2402327B1, “Acetamide compounds as glucokinase activators, their process and medicinal applications” (Impetis Biosciences Ltd., priority 2010, dated 2012):

Legend:
primary rat hepatocytes = experiment: Measurement of glycogen synthesis in primary rat hepatocytes; assay type: cell-based, male Wistar rats; conditions: 10 µM compound, 10 mM glucose, 3 hours at 37°C, fold increase over DMSO control
Protocol: Primary hepatocytes are collected from male Wistar rats, and tested for viability by trypan blue exclusion. Primary hepatocytes cultures with viability greater than 95% are selected for the glycogen synthesis assay. The cells are seeded in a 48-well plate at a density of 200,000 cells/well in 250 µl Minimal Essential Medium (MEM) containing 10% foetal calf serum (FCS) and 1.7 µM insulin, and incubated for 4 hours at 37°C to allow attachment. The medium is replaced with fresh MEM containing 10% FCS, 1.7 µM insulin and 10 nM dexamethasone, and the cells are incubated for 16 hours at 37°C. The medium is then replaced with fresh MEM (serum-free) containing 2 µCi/ml of D-[U^14C]-Glucose along with 10 µM of the compound in a final DMSO concentration of 0.1%. The final glucose concentration is brought to 10 mM by the addition of D-Glucose (MEM already contains 5 mM glucose). The cells are incubated for 3 hours at 37°C. The cells are washed twice with 150 mM NaCl, lysed with 0.1 N NaOH, and the lysate precipitated with 8% w/v trichloroacetic acid (TCA) and 1 mg/well unlabeled glycogen as carrier. Cell debris is pelleted by centrifugation, the supernatant is removed, and the glycogen is precipitated with 63% ethanol. After another round of centrifugation, the supernatant is removed, and the pellet containing the precipitated glycogen is dried overnight. De novo synthesized glycogen is estimated in a scintillation counter (MicroBeta Trilux, Perkin Elmer), and expressed as fold increase over DMSO control.
The protocol for the glycogen assay is based on the method described in "Biochem J. 1990 Feb 15; 266(1): 91-102" with a few minor modifications. The protocol for isolation of primary rat hepatocytes is based on the method described in "Methods in Enzymology, Vol. III. pp 34-50. Ed. by S.P. Colowick and N.O. Kaplan. New York, Academic Press, 1957" with a few minor modifications.
Compounds described in formula (I), in concentration ranges from 1.0 nM to 500 µM, are tested in glycogen synthesis assay described above. […]

[1] = target: T1, purified human recombinant GK (Homo sapiens, UniProt P35557); experiment: Glucokinase activity assay (coupled enzymatic assay with G6PD, NADH absorbance at 340 nm); assay type: biochemical; conditions: for EC50: EC50 of % change in S0.5 (% ΔS0.5) of glucokinase for glucose, sigmoidal fit; for Emax: Emax of % change in S0.5 (% ΔS0.5), vehicle control S0.5 = 0%, 0 mM glucose = 100%
T1 sequence (P35557 1-465): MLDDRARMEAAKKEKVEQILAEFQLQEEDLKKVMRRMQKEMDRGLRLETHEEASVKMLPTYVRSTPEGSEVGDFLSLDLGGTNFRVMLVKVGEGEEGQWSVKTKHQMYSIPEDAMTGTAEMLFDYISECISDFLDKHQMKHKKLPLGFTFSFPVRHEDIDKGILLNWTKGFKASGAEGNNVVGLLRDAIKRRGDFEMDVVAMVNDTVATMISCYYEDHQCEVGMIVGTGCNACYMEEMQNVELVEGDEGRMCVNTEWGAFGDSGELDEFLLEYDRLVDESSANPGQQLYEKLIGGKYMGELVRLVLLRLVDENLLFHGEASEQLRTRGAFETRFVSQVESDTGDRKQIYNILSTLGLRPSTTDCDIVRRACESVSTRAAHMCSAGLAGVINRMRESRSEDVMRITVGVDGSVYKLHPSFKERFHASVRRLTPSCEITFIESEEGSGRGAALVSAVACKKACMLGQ
Description: The glucokinase (GK) assay is a coupled enzymatic assay. GK catalyzes the first step of glycolysis, the conversion of glucose to glucose-6-phosphate (G6P) in the presence of ATP. G6P in turn is converted by glucose-6-phosphate dehydrogenase (G6PD) to 6-phosphogluconate, a process that requires NAD, resulting in NADH formation. Since the GK-catalyzed step is the rate-limiting step of this coupled enzymatic process, the rate of accumulation of 6-phosphogluconate and NADH is directly proportional to the rate of glucose phosphorylation by GK. The rate of the GK-catalyzed reaction can therefore be measured by monitoring the increase in NADH absorbance at 340 nm.
The assay is carried out according to the protocol outlined in Hariharan et al (1997), Diabetes 46: 11-16. Briefly, the test compounds are incubated in a reaction mix containing 25 mM HEPES (pH 7.2), 10 mM MgCl2, 100 mM KCl, 5 mM ATP, 2 mM DTT, 0.5 mM NAD, 1 U/ml Leuconostoc mesenteroides G6PD, 0.3 U/ml of purified human recombinant GK, and different concentrations of glucose. Enzymatic activity is calculated from the initial reaction velocity, measured from the change in NADH absorbance as a function of time.
Compounds described in formula (I), in concentration ranges from 1.0 nM to 500 µM, are tested in the purified human recombinant glucokinase assay described above.
A compound is considered to be a glucokinase activator if it, in its testable range of concentrations, yields a higher rate of glucose phosphorylation than in its absence at a particular glucose concentration, for example at 5 mM glucose.
Compounds of general formula (I) are tested in the in vitro GK enzymatic assay to monitor dose-dependent effect on glucokinase activation (in kinetic mode), as described above, at various glucose concentrations. The S0.5 of glucokinase for glucose at different concentration of each compound of interest is calculated from the following modified version of the Michaelis-Menten equation, V = Vmax [S]^n/(S0.5^n + [S]^n), where [S] is the glucose concentration and n is the Hill coefficient (taken as 1.7 to account for the sigmoidal kinetics of glucokinase with respect to glucose). The S0.5 is plotted against the log of the compound concentration. The change in the S0.5 of glucokinase (ΔS0.5) for glucose is calculated by subtracting the S0.5 at each concentration of the compound from the S0.5 in the vehicle control. The ΔS0.5 is then normalized to a percent scale, where the S0.5 in the vehicle control is set to 0% and 0 mM glucose is set to 100%. The % ΔS0.5 is then plotted against the log of the compound concentration. The EC50 and Emax of % change in S0.5 is obtained from the sigmoidal fit of the data. Detailed protocol has been described in our copending application no. 409/CHE/2007 which is incorporated herein by reference. Characterization data of some representative glucokinase activators of the present disclosure, which are illustrative but not limiting, are given in table I below.
The glucokinase activation data of some representative compounds of the present disclosure, which are illustrative but not to be construed as limiting the scope or spirit of the disclosure, are given in the table I below. Table I: EC50 and Emax (with respect to % ΔS0.5) of GK activators

[2] = cited from earlier work

Molecule | EC50 [1] [nM] | Emax [1] [%] | Fold increase in glycogen synthesis at 10 µM (primary rat hepatocytes) [fold] | hypoglycemia ([2]; animal efficacy models, Kamata, K. et al (2004) Structure 12: 429-438) | hypoglycemic potential ([2]; at higher dose, Fyfe, M. C. T. (2007) Diabetologia, 50: 1277-1287)
O=C(O)c1ccc(Oc2cnc(NC(=O)C(Oc3ccc(F)cc3F)c3ccc(S(=O)(=O)C4CC4)cc3)s2)cc1 (single isomer, unassigned; (+)) [Example D11A, (+)4-{2-[2-(4-Cyclopropanesulfonylphenyl)-2-(2,4-difluoro-phenoxy)-acetylamino]-thiazol-5-yloxy}-benzoic acid] | 34 | 95 | 15.5 | – | –
Ro-28-1675 | – | – | – | cause hypoglycemia | –
O=C(O)c1ccc(Oc2cnc(NC(=O)C(OC3CCOCC3)c3ccc(S(=O)(=O)C4CC4)cc3)s2)cc1 (single isomer, unassigned; (+)) [Example D4A, (+) 4-{2-[2-(4-Cyclopropanesulfonylphenyl)-2-(tetrahydro-pyran-4-yloxy)-acetylamino]-thiazol-5-yloxy}-benzoic acid] | 69 | 92 | – | – | –
O=C(Nc1nc2cccnc2s1)C(Oc1ccc(F)cc1F)c1ccc(S(=O)(=O)N2CCCCC2)cc1 (single isomer, unassigned; (-)) [Example D1A, (-)2-(2,4-Difluoro-phenoxy)-2-[4-(piperidine-1-sulfonyl)-phenyl]-N-thiazo lo[5,4-b]pyridin-2-yl-acetamide] | 84 | 85 | – | – | –
NC(=O)c1cccc(Oc2cnc(NC(=O)C(Oc3ccc(F)cc3F)c3ccc(S(=O)(=O)C4CC4)cc3)s2)c1 (stereo not shown) [Example C6, 3-{2-[2-(4-Cyclopropanesulfonyl-phenyl)-2-(2,4-difluorophenoxy)-acetylamino]-thiazol-5-yloxy}-benzamide] | – | – | 13.5 | – | –
O=C(Nc1ncc(F)s1)[C@H](CC1CCOCC1)c1ccc(S(=O)(=O)C2CC2)cc1 [PSN-GK1] | – | – | – | – | hypoglycemic potential is seen
CCOc1ccc2nc(NC(=O)C(OC3CCOCC3)c3ccc(S(=O)(=O)C4CC4)cc3)sc2n1 (single isomer, unassigned; (+)) [Example D10A, (+)2-(4-Cyclopropanesulfonyl-phenyl)-N -(5-ethoxy-thiazolo[5,4-b]pyridin-2-yl)-2-(tetrahydro-pyran-4-yloxy)-a Cetamide] | 54 | 92 | – | – | –
O=C(O)c1ccc(Oc2cnc(NC(=O)C(O[C@@H]3CCOC3)c3ccc(S(=O)(=O)C4CC4)cc3)s2)cc1 (single isomer, unassigned) [Example D6A] | 22 | 88 | 11 | – | –
COc1ccc2nc(NC(=O)C(OC3CCOCC3)c3ccc(S(=O)(=O)C4CC4)cc3)sc2n1 (single isomer, unassigned; (+)) [Example D9A, (+)2-(4-Cyclopropanesulfonyl-phenyl)-N -(5-methoxy-thiazolo[5,4-b]pyridin-2-yl)-2-(tetrahydro-pyran-4-yloxy)-Acetamide] | 68 | 95 | – | – | –

More lines, main results first:

EC50 [1] [nM] | Emax [1] [%] | Molecule | Fold increase in glycogen synthesis at 10 µM (primary rat hepatocytes) [fold] | hypoglycemia ([2]; animal efficacy models, Kamata, K. et al (2004) Structure 12: 429-438) | hypoglycemic potential ([2]; at higher dose, Fyfe, M. C. T. (2007) Diabetologia, 50: 1277-1287)
99 | 88 | O=C(Nc1ncc(Oc2ccc(-c3nn[nH]n3)cc2)s1)C(OC1CCOCC1)c1ccc(S(=O)(=O)C2CC2)cc1 (stereo not shown) [Example E1, 2-(4-Cyclopropanesulfonyl-phenyl)-2-(tetrahydro-pyran-4-yloxy)-N-{5-[4-(2H-tetrazol-5-yl)-phenoxy]-thiazol-2-yl}-acetamide] | – | – | –
100 | 91 | O=C(Nc1ncc(Oc2ccc(CO)cc2)s1)C(OC1CCOCC1)c1ccc(S(=O)(=O)C2CC2)cc1 (stereo not shown) [Example F1, 2-(4-Cyclopropanesulfonyl-phenyl)-N-[5-(4-hydroxymethyl-phenoxy)-thiazol-2-yl]-2-(tetrahydro-pyran-4-yloxy)-acetamide] | – | – | –
45 | 91 | O=C(O)c1ccc(Oc2cnc(NC(=O)C(OC3CCOCC3)c3ccc(S(=O)(=O)C4CC4)cc3)s2)c(F)c1 (stereo not shown) [Example B34, 4-{2-[2-(4-Cyclopropanesulfonyl-phenyl)-2-(tetrahydropyran-4-yloxy)-acetylamino]-thiazol-5-yloxy}-3-fluorobenzoic acid] | – | – | –
100 | 75 | O=C(O)c1ccc2nc(NC(=O)C(OC3CCOCC3)c3ccc(S(=O)(=O)C4CC4)cc3)sc2c1 (stereo not shown) [Example B41, 2-[2-(4-Cyclopropanesulfonyl-phenyl)-2-(tetrahydro-pyran-4-yloxy)-acetylamino]-benzothiazole-6-carboxylic acid] | – | – | –
